{"source": "patent US8067542B1", "about": "(priority 2003, dated 2011)", "origin": "cited, not measured here", "tested_on": "Verticillium dahliae", "conditions": "AlfAFP expressed in potato (Gao et al, 2000); cited from earlier work", "data": [{"substance": "Alf - wt: native alfalfa antifungal protein (plant defensin from Medicago sativa seeds), SEQ ID NO:2 (RTCENLADKYRGPCFSGCDTHCTTKENAVSGRCRDDFRCWCTKRC; listed as Medicago sativa)", "values": [{"measurement": "resistance to early dying disease in potato", "value": "confer resistance to early dying disease"}]}]}
